Tests used:
[1] = tested on: Staphylococcus aureus (ATCC29213); assay: Broth microdilution MIC, Staphylococcus aureus reference strain; type: cell-based; details: Staphylococcus aureus ATCC29213, 24 h
Description: (§1) The MIC values of the complexes were determined against the reference strains of S. aureus (ATCC29213) and E. faecalis. (ATCC29212) and against clinical VRE and MRSA isolates by microdilution assays (repeated at least twice in duplicates) as described in Materials and Methods. The numbers indicate how many isolates were susceptible to the compound out of those tested; i.e., 1/6 stands for 1 isolate was susceptible out of 6 tested. […] Cells were harvested and lysed. Cellular proteins was separated on a 10% SDS-PAGE gel and were blotted. Blots were probed with 4HNE antibody (top blot), the lower blot was stained with amido black. Arrows point at band of interest. Experiments were repeated three times and a representative blot is shown. On the blots brightness and contrast were adjusted. […] Each was matched to a substance and strain by its position over the x-axis categories. / Ir-7: ND and 0/3 (left plot) and ND and 0/6 (right plot) were matched to E. faecalis/VRE and S. aureus/MRSA by position only.
(§2) We used the reference strains of Staphylococcus aureus (ATCC29213), and Enterococcus faecalis (ATCC29212) that were purchased from ATCC (Manassas, VA, United States).
(§3) Microdilution experiments were performed according to the standards of EUCAST ([EUCAST, 2021]). […] The inoculated plates were incubated for 24 h at 37°C then were assessed visually. […] All experiments were performed at least twice in duplicates.

[2] = tested on: 4HNE expression in Enterococcus faecalis reference strain; assay: Western blot for 4HNE in Enterococcus faecalis reference strain; type: cell-based; details: at MIC (Ru-7 5 μM, Os-7 10 µM), 15 min, 30 min, 1 h; band ∼120 kDa
Description: (§4) The MIC values of the complexes were determined against the reference strains of S. aureus (ATCC29213) and E. faecalis. (ATCC29212) and against clinical VRE and MRSA isolates by microdilution assays (repeated at least twice in duplicates) as described in Materials and Methods. The numbers indicate how many isolates were susceptible to the compound out of those tested; i.e., 1/6 stands for 1 isolate was susceptible out of 6 tested. […] Cells were harvested and lysed. Cellular proteins was separated on a 10% SDS-PAGE gel and were blotted. Blots were probed with 4HNE antibody (top blot), the lower blot was stained with amido black. Arrows point at band of interest. Experiments were repeated three times and a representative blot is shown. On the blots brightness and contrast were adjusted. […]
(§5) SDS-polyacrylamide gel electrophoresis and Western blot was performed as in ([Márton et al., 2018]) using an antibody against 4HNE (Abcam (ab46545) 1:1000) that was detected using a corresponding peroxidase-conjugated secondary antibody (1:10000, Cell Signaling Technology, Inc., Beverly, MA, United States). […] ECL and amido black pictures were captured using the ChemiDoc Touch Imaging System (Bio-Rad Laboratories, Inc., Hercules, California, United States) and the pictures were evaluated using the Image Lab software (Bio-Rad).

[3] = tested on: 4HNE formation in Staphylococcus aureus reference strain; assay: Western blot for 4HNE in Staphylococcus aureus reference strain; type: cell-based; details: at MIC (Ru-7 10 μM, Os-7 20 µM), 15 min, 30 min, 1 h; band ∼50 kDa
Description: as §4, §5

[4] = tested on: A2780 cells; assay: Annexin V - propidium iodide double staining, flow cytometry; type: cell-based; details: 2 h, complexes at their IC50 (Ru-7 0.846 μM, Os-7 0.578 µM, Ir-7 0.891 µM)
From the text: We verified the toxic effects of the active Ru, Os and Ir complexes by Annexin V-FITC propidium iodide (PI) double staining. The complexes were applied in concentrations corresponding to their respective IC50 values and we have not detected increases in the apoptotic (Annexin V positive population) or the necrotic (PI positive and Annexin V—PI double positive populations) as opposed to the hydrogen peroxide-treated cells used as positive control (Figure 6).
Cells were then stained with Annexin V and propidium iodide (PI) and cells were subjected to flow cytometry as described in Materials and Methods. The percent of cells in the quadrants are plotted. Data is represented as average ± SD, from three biological replicates, individual assays were performed in duplicates. Normal distribution was achieved by Box-Cox normalization of the data. Statistical significance was determined using a two-way ANOVA test, all measurement points were compared with each other. * indicate statistically significant differences between vehicle-treated (control) and treated cells (complexes or 300 µM H2O2) corresponding to the same quadrant (e.g., vehicle-treated double negative cells vs. H2O2-treated double negative cells) at p <0.05.
The proportions of dead cells was assessed using the Annexin V—propidium iodide assay and was measured using flow cytometry using BD FacsCalibur (BD Biosciences, Franklin Lakes, NJ, United States) instrument and the FITC Annexin V/Dead Cell Apoptosis kit (Life Technologies, Eugene, OR, United States) according to the manufacturer’s instructions similar to ([Bai et al., 2001]). Quadrants were set based on the FITC and PI values observed for the vehicle-treated cells. Ten thousand cells were measured and the percent in the quadrants was used for the subsequent calculation.

[5] = tested on: Enterococcus faecalis (ATCC29212); assay: Broth microdilution MIC, Enterococcus faecalis reference strain; type: cell-based; details: Enterococcus faecalis ATCC29212, 24 h
Description: as §1, §2, §3

[6] = Determination of the distribution coefficients (logD); type: physicochemical; details: distribution coefficient

SMILES: Cc1ccc(C(C)C)cc1.F[P-](F)(F)(F)(F)F.O=C(OCC1OC(n2cc(-c3ccc4ccccc4n3)nn2)C(OC(=O)c2ccccc2)C(OC(=O)c2ccccc2)C1OC(=O)c1ccccc1)c1ccccc1.[Cl][Ru+] (mixture of isomers) [Ru-7]
- MIC, Reference S. aureus [1]: 10 µM
- 4HNE expression in Enterococcus faecalis reference strain [2]: induced 4HNE expression
- 4HNE formation in Staphylococcus aureus reference strain [3]: induced 4HNE formation
- induction of cell death (apoptotic / necrotic populations) [4]: do not induce cell death
- MIC, Reference E. faecalis [5]: 5 µM

SMILES: Cc1c(C)c(C)[c-](C)c1C.F[P-](F)(F)(F)(F)F.O=C(OCC1OC(n2cc(-c3ccc4ccccc4n3)nn2)C(OC(=O)c2ccccc2)C(OC(=O)c2ccccc2)C1OC(=O)c1ccccc1)c1ccccc1.[Cl][Ir+2] (mixture of isomers) [Ir-7]
- induction of cell death (apoptotic / necrotic populations) [4]: do not induce cell death

SMILES: Cc1ccc(C(C)C)cc1.F[P-](F)(F)(F)(F)F.O=C(OCC1OC(n2cc(-c3ccc4ccccc4n3)nn2)C(OC(=O)c2ccccc2)C(OC(=O)c2ccccc2)C1OC(=O)c1ccccc1)c1ccccc1.[Cl][Os+] (mixture of isomers) [Os-7]
- MIC, Reference S. aureus [1]: 20 µM
- 4HNE expression in Enterococcus faecalis reference strain [2]: induced 4HNE expression
- 4HNE formation in Staphylococcus aureus reference strain [3]: induced 4HNE formation
- induction of cell death (apoptotic / necrotic populations) [4]: do not induce cell death
- LogD [6]: 2.33
- MIC, Reference E. faecalis [5]: 10 µM

— article PMC9923724, “Half sandwich-type osmium, ruthenium, iridium and rhodium complexes with bidentate glycosyl heterocyclic ligands induce cytostasis in platinum-resistant ovarian cancer cells and bacteriostasis in Gram-positive multiresistant bacteria” (Frontiers in Chemistry, 2023)
